# Test results as given in US20260070945A1, “MACROCYCLIC IMMUNOMODULATORS” (Bristol-Myers Squibb Company, priority 2022, published 2026).
# *1 amine or outer side, *2 acyl side, *3 side chain or, on linkers, in order; H or OH if unused. Where a SMILES comes first, the peptide text is derived from it. Bridges are numbered along the chain shown (N, C = ends). [ ]: non-standard residue; d: D form. The star is where a group is joined. ξ: configuration not given here. Phe(4-COOH) = N[C@@H](Cc1ccc(C(=O)O)cc1)C(=O)O; Bip = N[C@@H](Cc1ccc(-c2ccccc2)cc1)C(=O)O; γGlu = O=C(O)[C@H](CCC(=O)[*:2])N[*:1]; 4Pal = N[C@@H](Cc1ccncc1)C(=O)O; Cha = N[C@@H](CC1CCCCC1)C(=O)O; Ile(3ξ) = CCC(C)[C@H](N)C(=O)O; Thr(3ξ) = CC(O)[C@H](N)C(=O)O; dOrn = NCCC[C@@H](N)C(=O)O; Carboxymethyl = O=C(O)C*; NMeA = CN[C@@H](C)C(=O)O; Orn = NCCC[C@H](N)C(=O)O; dDap = NC[C@@H](N)C(=O)O; Aun = NCCCCCCCCCCC(=O)O; Dab = NCC[C@H](N)C(=O)O; Dap = NC[C@H](N)C(=O)O; AEEA = NCCOCCOCC(=O)O
# Target: T1, PD-1/PD-L1 interaction (PE-labeled human PD-L1-Ig binding to Jurkat cell line over-expressing human PD-1) (Homo sapiens, UniProt Q15116)
# T1 construct: expressed in transfected cells; host or cells: Jurkat
# Assay: Jurkat-PD-1 Cell Binding High-Content Screening Assay (CBA)
# Settings: Jurkat-hPD-1 cells, PE-labeled PD-L1-Ig 20 nM final; read-out: Jurkat HPD1 PDL1 IC50
# Method in brief: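 Compound is added first to the PD-1-expressing Jurkat cells and held 2 h at 37 °C in serum-containing DMEM. The fluorescent PD-L1 fusion follows at 20 nM final for 1 h. Fixed, Hoechst-stained cells are then imaged for bound label.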
# T1 sequence (Q15116 25-288): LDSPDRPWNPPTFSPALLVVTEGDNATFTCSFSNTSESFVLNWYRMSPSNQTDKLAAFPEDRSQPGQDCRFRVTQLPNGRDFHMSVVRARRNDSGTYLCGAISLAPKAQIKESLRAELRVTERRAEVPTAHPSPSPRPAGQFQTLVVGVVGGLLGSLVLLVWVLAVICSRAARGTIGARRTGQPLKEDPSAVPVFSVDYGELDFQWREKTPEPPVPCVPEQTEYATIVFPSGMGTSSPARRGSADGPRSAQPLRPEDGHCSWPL
row,Compound,IC50
1,CCC(C)[C@@H]1NC(=O)[C@H](Cc2ccc(-c3ccccc3)cc2)NC(=O)[C@H](CC(C)C)NC(=O)[C@H](Cc2c[nH]c3ccccc23)NC(=O)[C@H](CC(=O)O)NC(=O)[C@H](Cc2ccc(C(=O)O)cc2)NC(=O)[C@H](Cc2ccc(OCC(=O)O)cc2)NC(=O)CSC[C@@H](C(=O)N[C@@H](CC(N)=O)C(=O)N[C@@H](CCC(=O)NCCCCCCCCCCC(=O)O)C(=O)O)NC(=O)[C@H](CO)NC(=O)[C@H](C(C)C)NC(=O)[C@H](CC2CCCCC2)NC(=O)[C@H](CCN)NC(=O)[C@@H](CC(C)C)NC(=O)[C@H](C)N(C)C1=O (stereo partly drawn) [Example 2069] ({CH2CO}-Y(Carboxymethyl)[Phe(4-COOH)]DWL[Bip][Ile(3ξ)][NMeA][dL][Dab][Cha]VSCN[γGlu][Aun]-OH; thioether N-14),24.5 nM
2,CCC(C)[C@@H]1NC(=O)[C@H](Cc2ccc(-c3ccccc3)cc2)NC(=O)[C@H](CC(C)C)NC(=O)[C@H](Cc2c[nH]c3ccccc23)NC(=O)[C@H](CC(=O)O)NC(=O)[C@H](Cc2ccc(O)cc2)NC(=O)[C@H](Cc2ccncc2)NC(=O)CSC[C@@H](C(=O)N[C@H](CCCN)C(=O)NCCOCCOCC(=O)NCCCCCCCCCCC(=O)O)NC(=O)[C@H](CO)NC(=O)[C@H](C(C)C)NC(=O)[C@H](CC2CCCCC2)NC(=O)[C@H](CC(N)=O)NC(=O)[C@@H](CC(C)C)NC(=O)[C@H](C)N(C)C1=O (stereo partly drawn) [Example 2070] ({CH2CO}-[4Pal]YDWL[Bip][Ile(3ξ)][NMeA][dL]N[Cha]VSC[dOrn][AEEA][Aun]-OH; thioether N-14),97.4 nM
3,CCC(C)[C@@H]1NC(=O)[C@H](Cc2ccc(-c3ccccc3)cc2)NC(=O)[C@H](C(C)C)NC(=O)[C@H](Cc2c[nH]c3ccccc23)NC(=O)[C@H](CC(=O)O)NC(=O)[C@H](Cc2ccc(O)cc2)NC(=O)[C@H](Cc2ccncc2)NC(=O)CSC[C@@H](C(=O)N[C@H](CN)C(=O)NCCOCCOCC(=O)NCCCCCCCCCCC(=O)O)NC(=O)[C@H](C(C)O)NC(=O)[C@H](C(C)C)NC(=O)[C@H](CC2CCCCC2)NC(=O)[C@H](CCN)NC(=O)[C@@H](CC(C)C)NC(=O)[C@H](C)N(C)C1=O (stereo partly drawn) [Example 2071] ({CH2CO}-[4Pal]YDWV[Bip][Ile(3ξ)][NMeA][dL][Dab][Cha]V[Thr(3ξ)]C[dDap][AEEA][Aun]-OH; thioether N-14),20.2 nM
4,CCC(C)[C@@H]1NC(=O)[C@H](Cc2ccc(-c3ccccc3)cc2)NC(=O)[C@H](CC(C)C)NC(=O)[C@H](Cc2c[nH]c3ccccc23)NC(=O)[C@H](CC(=O)O)NC(=O)[C@H](Cc2ccc(O)cc2)NC(=O)[C@H](CC(N)=O)NC(=O)CSC[C@@H](C(=O)N[C@@H](C)C(=O)NCCOCCOCC(=O)NCCCCCCCCCCC(=O)O)NC(=O)[C@H](CO)NC(=O)[C@H](C(C)C)NC(=O)[C@H](CC2CCCCC2)NC(=O)[C@H](CCN)NC(=O)[C@@H](CC(C)C)NC(=O)[C@H](C)N(C)C1=O (stereo partly drawn) [Example 2072] ({CH2CO}-NYDWL[Bip][Ile(3ξ)][NMeA][dL][Dab][Cha]VSCA[AEEA][Aun]-OH; thioether N-14),25.4 nM
5,CCC(C)[C@@H]1NC(=O)[C@H](Cc2ccc(-c3ccccc3)cc2)NC(=O)[C@H](CC(C)C)NC(=O)[C@H](Cc2c[nH]c3ccccc23)NC(=O)[C@H](CC(=O)O)NC(=O)[C@H](Cc2ccc(O)cc2)NC(=O)[C@H](Cc2ccncc2)NC(=O)CSC[C@@H](C(=O)N[C@@H](CCCN)C(=O)NCCOCCOCC(=O)NCCCCCCCCCCC(=O)O)NC(=O)[C@H](CO)NC(=O)[C@H](C(C)C)NC(=O)[C@H](CC2CCCCC2)NC(=O)[C@H](CCN)NC(=O)[C@@H](CC(C)C)NC(=O)[C@H](C)N(C)C1=O (stereo partly drawn) [Example 2073] ({CH2CO}-[4Pal]YDWL[Bip][Ile(3ξ)][NMeA][dL][Dab][Cha]VSC[Orn][AEEA][Aun]-OH; thioether N-14),44 nM
6,CCC(C)[C@@H]1NC(=O)[C@H](Cc2ccc(-c3ccccc3)cc2)NC(=O)[C@H](CC(C)C)NC(=O)[C@H](Cc2c[nH]c3ccccc23)NC(=O)[C@H](CC(=O)O)NC(=O)[C@H](Cc2ccc(C(=O)O)cc2)NC(=O)[C@H](Cc2ccc(OCC(=O)O)cc2)NC(=O)CSC[C@@H](C(=O)NCCOCCOCC(=O)N[C@@H](CN)C(=O)NCCCCCCCCCCC(=O)O)NC(=O)[C@H](CO)NC(=O)[C@H](C(C)C)NC(=O)[C@H](CC2CCCCC2)NC(=O)[C@H](CCN)NC(=O)[C@@H](CC(C)C)NC(=O)[C@H](C)N(C)C1=O (stereo partly drawn) [Example 2074] ({CH2CO}-Y(Carboxymethyl)[Phe(4-COOH)]DWL[Bip][Ile(3ξ)][NMeA][dL][Dab][Cha]VSC[AEEA][Dap][Aun]-OH; thioether N-14),9.9 nM
7,CCC(C)[C@@H]1NC(=O)[C@H](Cc2ccc(-c3ccccc3)cc2)NC(=O)[C@H](CC(C)C)NC(=O)[C@H](Cc2c[nH]c3ccccc23)NC(=O)[C@H](CC(=O)O)NC(=O)[C@H](Cc2ccc(C(=O)O)cc2)NC(=O)[C@H](Cc2ccc(OCC(=O)O)cc2)NC(=O)CSC[C@@H](C(=O)N[C@@H](CC(N)=O)C(=O)NCCOCCOCC(=O)N[C@@H](CN)C(=O)NCCCCCCCCCCC(=O)O)NC(=O)[C@H](CO)NC(=O)[C@H](C(C)C)NC(=O)[C@H](CC2CCCCC2)NC(=O)[C@H](CCN)NC(=O)[C@@H](CC(C)C)NC(=O)[C@H](C)N(C)C1=O (stereo partly drawn) [Example 2075] ({CH2CO}-Y(Carboxymethyl)[Phe(4-COOH)]DWL[Bip][Ile(3ξ)][NMeA][dL][Dab][Cha]VSCN[AEEA][Dap][Aun]-OH; thioether N-14),15.5 nM
8,CCC(C)[C@@H]1NC(=O)[C@H](Cc2ccc(-c3ccccc3)cc2)NC(=O)[C@H](CC(C)C)NC(=O)[C@H](Cc2c[nH]c3ccccc23)NC(=O)[C@H](CC(=O)O)NC(=O)[C@H](Cc2ccc(O)cc2)NC(=O)[C@H](CC(N)=O)NC(=O)CSC[C@@H](C(=O)N[C@@H](C)C(=O)NCCOCCOCC(=O)N[C@@H](CCCN)C(=O)NCCCCCCCCCCC(=O)O)NC(=O)[C@H](CO)NC(=O)[C@H](C(C)C)NC(=O)[C@H](CC2CCCCC2)NC(=O)[C@H](CC(N)=O)NC(=O)[C@@H](CC(C)C)NC(=O)[C@H](C)N(C)C1=O (stereo partly drawn) [Example 2076] ({CH2CO}-NYDWL[Bip][Ile(3ξ)][NMeA][dL]N[Cha]VSCA[AEEA][Orn][Aun]-OH; thioether N-14),54.3 nM
9,CCC(C)[C@@H]1NC(=O)[C@H](Cc2ccc(-c3ccccc3)cc2)NC(=O)[C@H](C(C)C)NC(=O)[C@H](Cc2c[nH]c3ccccc23)NC(=O)[C@H](CC(=O)O)NC(=O)[C@H](Cc2ccc(O)cc2)NC(=O)[C@H](Cc2ccncc2)NC(=O)CSC[C@@H](C(=O)N[C@@H](C)C(=O)NCCOCCOCC(=O)N[C@@H](CCCN)C(=O)NCCCCCCCCCCC(=O)O)NC(=O)[C@H](C(C)O)NC(=O)[C@H](C(C)C)NC(=O)[C@H](CC2CCCCC2)NC(=O)[C@H](CCN)NC(=O)[C@@H](CC(C)C)NC(=O)[C@H](C)N(C)C1=O (stereo partly drawn) [Example 2077] ({CH2CO}-[4Pal]YDWV[Bip][Ile(3ξ)][NMeA][dL][Dab][Cha]V[Thr(3ξ)]CA[AEEA][Orn][Aun]-OH; thioether N-14),14.1 nM
10,CCC(C)[C@@H]1NC(=O)[C@H](Cc2ccc(-c3ccccc3)cc2)NC(=O)[C@H](C(C)C)NC(=O)[C@H](Cc2c[nH]c3ccccc23)NC(=O)[C@H](CC(=O)O)NC(=O)[C@H](Cc2ccc(O)cc2)NC(=O)[C@H](Cc2ccncc2)NC(=O)CSC[C@@H](C(=O)N[C@@H](CC(N)=O)C(=O)NCCOCCOCC(=O)N[C@@H](CCCN)C(=O)NCCCCCCCCCCC(=O)O)NC(=O)[C@H](CO)NC(=O)[C@H](C(C)C)NC(=O)[C@H](CC2CCCCC2)NC(=O)[C@H](CCN)NC(=O)[C@@H](CC(C)C)NC(=O)[C@H](C)N(C)C1=O (stereo partly drawn) [Example 2078] ({CH2CO}-[4Pal]YDWV[Bip][Ile(3ξ)][NMeA][dL][Dab][Cha]VSCN[AEEA][Orn][Aun]-OH; thioether N-14),12.2 nM
